Experimental data as given in ChEMBL document CHEMBL1201862, “PubChem BioAssay data set” (2004).
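Interpolation was linear, between the two tested concentrations surrounding the appropriate level; five concentrations were tested over 48 hours in 96-well plates. The concentration for 50% growth inhibition is given as GI50.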 Activity calls are given as the source filed them. Cut-off read from the data, not from the text of the source: active = GI50 up to about 1.1 µM and inactive = higher.

Key:
Assay in all cases: NCI anticancer screen, dose series, 48 h
BT-549 = tested on: BT-549
DLD-1 = tested on: DLD-1
DMS-273 = tested on: DMS-273
KM-20L2 = tested on: KM-20L2
M19-MEL = tested on: M19-MEL
SNB-78 = tested on: SNB-78
HOP-18 = tested on: HOP-18
MDA-N = tested on: MDA-N

Row | Compound | GI50 (BT-549) | GI50 (MDA-N) | further results
1 | CCOC(=O)C1=C(C)N(Cc2ccccc2)C2(O)C(OC)CC(=O)C3C(=O)N(c4ccccc4)C(=O)C132 (stereo unspecified) | 4.97 µM (inactive) |  | 
2 | CCn1cnc2c(=S)nc(N)[nH]c21 |  |  | GI50 (DLD-1): > 100 µM (inactive); GI50 (DMS-273): > 100 µM (inactive); GI50 (KM-20L2): > 100 µM (inactive); GI50 (M19-MEL): > 100 µM (inactive); GI50 (SNB-78): > 100 µM (inactive)
3 | CC1(Cl)CC2OC3(Br)C=CC(C)(O)C2(CC1Br)C3(C)C (stereo unspecified) |  |  | GI50 (DLD-1): > 100 µM (inactive); GI50 (DMS-273): > 100 µM (inactive); GI50 (HOP-18): > 100 µM (inactive); GI50 (KM-20L2): > 100 µM (inactive); GI50 (M19-MEL): > 100 µM (inactive); GI50 (SNB-78): > 100 µM (inactive)
4 | Cc1c2c3cc(O)ccc3nc-2n(C)c2ccccc12 | 1.92 µM (inactive) | 2.07 µM (inactive) | 
5 | CNc1ncnc2c1cnn2CCCCO | > 100 µM (inactive) | > 100 µM (inactive) | 
6 | CN(C)CCNC(=O)c1cccc2c1Oc1c(cccc1[N+](=O)[O-])O2 | 1.9 µM (inactive) | 2.78 µM (inactive) | 
7 | CC(c1ccccc1)n1cncc1C(=O)NN1CCN(C)CC1 (stereo unspecified) | > 10 µM (inactive) | > 10 µM (inactive) | 
8 | COc1ccc(C2=C[C@]3(O)CCCN3C[C@@H]2c2ccc(OC)c(OC)c2)cc1 |  |  | GI50 (DLD-1): < 0.0001 µM (active); GI50 (DMS-273): < 0.0001 µM (active); GI50 (HOP-18): < 0.0001 µM (active); GI50 (KM-20L2): < 0.0001 µM (active); GI50 (SNB-78): < 0.0001 µM (active)
9 | COc1ccc(/C=C/c2nsc(/C=C/c3ccc(OC)cc3)n2)cc1 | > 100 µM (inactive) | > 100 µM (inactive) | 
10 | Cn1c2ccccc2c(=O)c2cccc(C(=O)NC(CCC(N)=O)C(=O)O)c21 (stereo unspecified) | > 100 µM (inactive) | > 100 µM (inactive) | 
11 | O=C(O)CNc1ncc2c(n1)-c1ccccc1OC2 |  | > 100 µM (inactive) | 
12 | COc1ccc(N2C(=O)[C@H]3[C@H]4CC(C(C)(C)C)CC[C@H]4c4c(n(C)c5ccccc45)[C@H]3C2=O)cc1 (stereo partly specified) | > 100 µM (inactive) | > 100 µM (inactive) | GI50 (DLD-1): < 0.01 µM (active); GI50 (DMS-273): > 100 µM (inactive); GI50 (HOP-18): > 100 µM (inactive); GI50 (M19-MEL): < 0.01 µM (active)
13 | CCCS(=O)OC1C(C2COC(C)(C)O2)OC2OC(C)(C)OC21 (stereo unspecified) | 12.1 µM (inactive) | 15.1 µM (inactive) | 
14 | Cc1ccc2c(c1)-c1c(C#N)c(N)nc(-c3ccccc3)c1CCS2(=O)=O | 12.1 µM (inactive) |  | 
15 | c1cc(C2=NCCO2)c2ccsc2c1 |  | > 100 µM (inactive) | 
16 | CC1(C)O[C@@H]([C@@H](O)[C@H](O)C2SCCCS2)[C@@H](CO)O1 | > 100 µM (inactive) | > 100 µM (inactive) | 

Row | Compound | GI50 (BT-549) | GI50 (MDA-N) | further results
17 | COC1(C)CCC(OS(C)(=O)=O)CO1 (stereo unspecified) | > 100 µM (inactive) | > 100 µM (inactive) | 
18 | COc1cc(-c2nc3ccccn3c2/N=C/c2cc(Br)cc(Br)c2O)ccc1O | 20.3 µM (inactive) | 22.4 µM (inactive) | 
19 | CCCCCCCCCCC(O)C1CCC(C2CCC(C(O)CCCCC(O)CCCCCC(O)CC3=CC(C)OC3=O)O2)O1 (stereo unspecified) | > 25 µM (inactive) | 3.86 µM (inactive) | 
20 | C=C1C(O)C23CCC4C(C(=O)O)(C(=O)O)CC(OC5OC(CO)C(O)C(OC(=O)CCc6ccccc6)C5NC(=O)CC(C)C)CC4(C)C2CCC1(O)C3 (stereo unspecified) | > 100 µM (inactive) | > 100 µM (inactive) | 
21 | CN(C)CCNC(=O)c1cccc2c1nc(-c1ccccn1)c1ccccc12 |  |  | GI50 (DLD-1): 11.9 µM (inactive); GI50 (DMS-273): 13.5 µM (inactive); GI50 (HOP-18): 21.4 µM (inactive); GI50 (M19-MEL): 18.1 µM (inactive); GI50 (SNB-78): 25.3 µM (inactive)
22 | COc1cc(/C=C/C(=O)c2ccc(NS(=O)(=O)c3cc([N+](=O)[O-])ccc3C)cc2)cc(OC)c1OC | 4.27 µM (inactive) | 3.62 µM (inactive) | 
23 | O=C(c1ccc(Cl)cc1)c1ccc(OCCCOc2ccc(C(=O)c3ccc(Cl)cc3)cc2)cc1 |  |  | GI50 (DLD-1): > 100 µM (inactive); GI50 (DMS-273): > 100 µM (inactive); GI50 (KM-20L2): > 100 µM (inactive); GI50 (M19-MEL): > 100 µM (inactive)
24 | O=c1[nH]nc(-c2ccccc2)n1-n1cnnc1 | > 100 µM (inactive) | > 100 µM (inactive) | 
25 | COC(=O)/C=C\n1c(C)cc(=O)[nH]c1=O | > 100 µM (inactive) | > 100 µM (inactive) | 
26 | O=C1N/C(=N/N=C/C(O)C(O)C(O)CO)N/C1=C\c1c[nH]c2ccccc12 (stereo unspecified) | > 100 µM (inactive) | > 100 µM (inactive) | 
27 | COc1cc2c(cc1OC)[C@H]1C(=O)c3cc4c(cc3[C@H]1N(C)C2=O)OCO4 | > 49.4 µM (inactive) | 12.1 µM (inactive) | 
28 | C#Cc1cccc(N2C(=O)CC(=P(c3ccccc3)(c3ccccc3)c3ccccc3)C2=O)c1 |  |  | GI50 (DLD-1): > 100 µM (inactive); GI50 (M19-MEL): 42.9 µM (inactive); GI50 (SNB-78): > 100 µM (inactive)
29 | CC1(c2ccccc2)CC12C(=O)NC(=O)NC2=O (stereo unspecified) |  |  | GI50 (DLD-1): > 100 µM (inactive); GI50 (DMS-273): > 100 µM (inactive); GI50 (KM-20L2): > 100 µM (inactive); GI50 (M19-MEL): > 100 µM (inactive); GI50 (SNB-78): > 100 µM (inactive)
30 | O=C1OC(C2(O)OC(=O)c3ccccc32)c2ccccc21 (stereo unspecified) | > 100 µM (inactive) | > 100 µM (inactive) | 
31 | O=C1CC2CCC(C1)[S+]2[O-] (stereo unspecified) | > 100 µM (inactive) | > 100 µM (inactive) | 
